Assay results published in US20260285850A1, “SUBSTITUTED OXAZOLIDINONES AND IMIDAZOLINONES AS HERBICIDES” (FMC CORPORATION, priority 2023, published 2026).

Experiments:
Type in all cases: in vivo
[1] = tested on: barnyardgrass (Echinochloa crus-galli); experiment: Test A preemergence soil spray, visual injury rating 0-100; details: 10 days
How it was run: (§1)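 Directed preemergence spray onto seeded soil or postemergence spray onto 2-10 cm plants (loam plus sand); compound carried in surfactant-containing non-phytotoxic solvent. Injury rated by eye after 10 d greenhouse growth; 0 = no effect, 100 = complete control.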

[2] = tested on: blackgrass (Alopecurus myosuroides); experiment: as above; details: 10 days
How it was run: as §1

corn (Zea mays) [3] = experiment: as above; details: 10 days
How it was run: as §1

[4] = tested on: green foxtail (Setaria viridis); experiment: as above; details: 10 days
How it was run: as §1

kochia (Bassia scoparia) [5] = experiment: as above; details: 10 days
How it was run: as §1

[6] = tested on: oat, wild (wild oat, Avena fatua); experiment: as above; details: 10 days
How it was run: as §1

[7] = tested on: palmer (palmer amaranth, palmer pigweed, Amaranthus palmeri); experiment: as above; details: 10 days
How it was run: as §1

[8] = tested on: ragweed (common ragweed, Ambrosia artemisiifolia); experiment: as above; details: 10 days
How it was run: as §1

[9] = tested on: ryegrass, Italian (italian ryegrass, Lolium multiflorum); experiment: as above; details: 10 days
How it was run: as §1

soybean (Glycine max) [10] = experiment: as above; details: 10 days
How it was run: as §1

[11] = tested on: wheat (Triticum aestivum); experiment: as above; details: 10 days
How it was run: as §1

[12] = tested on: barnyardgrass (Echinochloa crus-galli); experiment: Test A postemergence application, visual injury rating 0-100
How it was run: as §1

[13] = tested on: blackgrass (Alopecurus myosuroides); experiment: as above
How it was run: as §1

corn (Zea mays) [14] = experiment: as above
How it was run: as §1

[15] = tested on: galium (catchweed bedstraw, Galium aparine); experiment: as above
How it was run: as §1

[16] = tested on: green foxtail (Setaria viridis); experiment: as above
How it was run: as §1

[17] = tested on: horseweed (Erigeron canadensis); experiment: as above
How it was run: as §1

kochia (Bassia scoparia) [18] = experiment: as above
How it was run: as §1

[19] = tested on: oat, wild (wild oat, Avena fatua); experiment: as above
How it was run: as §1

[20] = tested on: palmer (palmer amaranth, palmer pigweed, Amaranthus palmeri); experiment: as above
How it was run: as §1

[21] = tested on: ragweed (common ragweed, Ambrosia artemisiifolia); experiment: as above
How it was run: as §1

[22] = tested on: ryegrass, Italian (italian ryegrass, Lolium multiflorum); experiment: as above
How it was run: as §1

soybean (Glycine max) [23] = experiment: as above
How it was run: as §1

[24] = tested on: wheat (Triticum aestivum); experiment: as above
How it was run: as §1

[25] = tested on: barnyardgrass (Echinochloa crusgalli); experiment: Test B flooded paddy test, visual plant response rating 0-100; details: 250 g ai/ha, Flood, applied to paddy water, evaluated after 13 days
How it was run: (§2)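 In this flooded assay, 2-leaf seedlings received compound through the water layer, kept at 3 cm over the soil. Plants were held 13 days in a greenhouse and then visually compared with control pots.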

[26] = tested on: ducksalad (Heteranthera limosa); experiment: as above; details: 250 g ai/ha, Flood, applied to paddy water, evaluated after 13 days
How it was run: as §2

rice (Oryza sativa) = experiment: as above; details: 250 g ai/ha, Flood, applied to paddy water, evaluated after 13 days
How it was run: as §2

[27] = tested on: sedge, umbrella (small-flower umbrella sedge, Cyperus difformis); experiment: as above; details: 250 g ai/ha, Flood, applied to paddy water, evaluated after 13 days
How it was run: as §2

[28] = 62 g ai/ha, 0 = no effect, 100 = complete control
[29] = 62 g ai/ha, postemergence, 10 days, 0 = no effect, 100 = complete control
[30] = Postemergence, 16 g ai/ha, greenhouse 10 days, 0 no effect, 100 complete control

C=CC1(C(=O)NC2CC(C(=O)OC)C2)CN(c2cc(F)cc(F)c2)C(=O)O1 (stereo not shown) [Compound 173] was tested, and the “Barnyardgrass plant response rating” value ([1]; 16 g ai/ha, 0 to 100 scale) was 40, the “Barnyardgrass plant response rating (0-100)” value [1, 28] was 100 and the “Blackgrass plant response rating” value ([2]; 16 g ai/ha, 0 to 100 scale) was 90. For the same compound, the “Blackgrass plant response rating (0-100)” value [2, 28] was 90, the “Corn plant response rating” value (corn (Zea mays) [3]; 16 g ai/ha, 0 to 100 scale) was 50 and the “Corn plant response rating (0-100)” value (corn (Zea mays) [3]; [28]) was 90. For the same compound, the “Foxtail, Green plant response rating” value ([4]; 16 g ai/ha, 0 to 100 scale) was 90, the “Foxtail, Green plant response rating (0-100)” value [4, 28] was 100 and the “Kochia plant response rating” value (kochia (Bassia scoparia) [5]; 16 g ai/ha, 0 to 100 scale) was 10. The “Kochia plant response rating (0-100)” value (kochia (Bassia scoparia) [5]; [28]) was 80, the “Oat, Wild plant response rating” value ([6]; 16 g ai/ha, 0 to 100 scale) was 70 and the “Oat, Wild plant response rating (0-100)” value [6, 28] was 90. For the same compound, the “Pigweed, Palmer plant response rating” value ([7]; 16 g ai/ha, 0 to 100 scale) was 20, the “Pigweed, Palmer plant response rating (0-100)” value [7, 28] was 90 and the “Ragweed plant response rating” value ([8]; 16 g ai/ha, 0 to 100 scale) was 0. The “Ragweed plant response rating (0-100)” value [8, 28] was 0, the “Ryegrass, Italian plant response rating” value ([9]; 16 g ai/ha, 0 to 100 scale) was 80 and the “Ryegrass, Italian plant response rating (0-100)” value [9, 28] was 90. For the same compound, the “Soybean plant response rating” value (soybean (Glycine max) [10]; 16 g ai/ha, 0 to 100 scale) was 30, the “Soybean plant response rating (0-100)” value (soybean (Glycine max) [10]; [28]) was 70 and the “Wheat plant response rating” value ([11]; 16 g ai/ha, 0 to 100 scale) was 90. The “Wheat plant response rating (0-100)” value [11, 28] was 100, the “Barnyardgrass plant response rating (0-100)” value [12, 29] was 90 and the “Barnyardgrass plant response rating (0 to 100 scale)” value [12, 30] was 80. For the same compound, the “Blackgrass plant response rating (0-100)” value [13, 29] was 90, the “Blackgrass plant response rating (0 to 100 scale)” value [13, 30] was 90 and the “Corn plant response rating (0-100)” value (corn (Zea mays) [14]; [29]) was 100. The “Corn plant response rating (0 to 100 scale)” value (corn (Zea mays) [14]; [30]) was 100, the “Galium plant response rating (0-100)” value [15, 29] was 80 and the “Galium plant response rating (0 to 100 scale)” value [15, 30] was 80. For the same compound, the “Foxtail, Green plant response rating (0-100)” value [16, 29] was 90, the “Foxtail, Green plant response rating (0 to 100 scale)” value [16, 30] was 90 and the “Horseweed plant response rating (0-100)” value [17, 29] was 50. The “Horseweed plant response rating (0 to 100 scale)” value [17, 30] was 0, the “Kochia plant response rating (0-100)” value (kochia (Bassia scoparia) [18]; [29]) was 90 and the “Kochia plant response rating (0 to 100 scale)” value (kochia (Bassia scoparia) [18]; [30]) was 90. The “Oat, Wild plant response rating (0-100)” value [19, 29] was 90, the “Oat, Wild plant response rating (0 to 100 scale)” value [19, 30] was 90 and the “Pigweed, Palmer plant response rating (0-100)” value [20, 29] was 90. For the same compound, the “Pigweed, Palmer plant response rating (0 to 100 scale)” value [20, 30] was 90, the “Ragweed plant response rating (0-100)” value [21, 29] was 80 and the “Ragweed plant response rating (0 to 100 scale)” value [21, 30] was 0. For the same compound, the “Ryegrass, Italian plant response rating (0-100)” value [22, 29] was 90, the “Ryegrass, Italian plant response rating (0 to 100 scale)” value [22, 30] was 80 and the “Soybean plant response rating (0-100)” value (soybean (Glycine max) [23]; [29]) was 50. The “Soybean plant response rating (0 to 100 scale)” value (soybean (Glycine max) [23]; [30]) was 50, the “Wheat plant response rating (0-100)” value [24, 29] was 90 and the “Wheat plant response rating (0 to 100 scale)” value [24, 30] was 90. For the same compound, the “Plant response rating, Barnyardgrass (0 to 100 scale, 0 is no effect and 100 is complete control)” value [25] was 90, the “Plant response rating, Ducksalad (0 to 100 scale, 0 is no effect and 100 is complete control)” value [26] was 95 and the “Plant response rating, Rice (0 to 100 scale, 0 is no effect and 100 is complete control)” value (rice (Oryza sativa)) was 75. The “Plant response rating, Sedge, Umbrella (0 to 100 scale, 0 is no effect and 100 is complete control)” value [27] was 100.
